# Patent publication US10787426B2, “Method of treating autism spectrum disorders using piperazine-1-carboxamidine or pharmaceutically acceptable salt thereof” (NEUROVENTI, priority 2016, dated 2020)
# Experiments:
# Format in all cases: in vivo, Sprague-Dawley (SD) rats
# [1] = test system: valproic acid-induced autism rat models; assay: Social preference test (familiar side vs novel side); details: 12.5 mg/kg or 25 mg/kg, intraperitoneal once a day, FIG. 2B
# Method: (§1) In particular, valproic acid was subcutaneously injected into female adult Sprague-Dawley (SD) rats on day 12 of gestation, at a dose of 450 mg/kg and in an administration amount of 10 ml/kg, and then the SD rats gave birth to babies. When the born babies were 21 days old, they were grouped according to body weight and selected as autism rat models. As a group administered a solvent, on day 12 of gestation, female adult SD rats were administered a saline solution instead of valproic acid, at the same dose and in the same administration amount.
# (§2) The autism rat models prepared according to Example <1-1> were intraperitoneally administered piperazine-1-carboxamidine 24 days after birth once a day at a predetermined time. At this time, piperazine-1-carboxamidine was administered at a dose of […], 12.5 mg/kg, 25 mg/kg, or 50 mg/kg, and in an amount of 10 ml/kg. The administration process was repeated until all the experiments were completed, and was performed 30 minutes before experiments, in the case of behavioral experiments.
# To further verify an effect of piperazine-1-carboxamidine on treating autism spectrum disorder in valproic acid-induced autism rat models, an experiment for confirming social preference was carried out.
# In particular, after social interest was confirmed in Example <2-1>, another identical type of rat were placed in the empty cage at one end of the box structure, and a social interaction experiment for the autism rat models as experimental groups was conducted for 10 minutes. The cage in which rat were placed in Example <2-1> was regarded as a familiar side, the cage in which new rat were placed was regarded as a novel side, and the degree of interest expressed by the autism rat models as experimental groups was confirmed using the EthoVision system by measuring residence time for each case. A significance test was performed using two-way ANOVA, followed by a Bonferroni's post hoc test.
# [2] = test system: valproic acid-induced autism rat models; assay: Social interaction test (three-compartment box, stranger vs empty cage); details: 6.25 mg/kg or more, intraperitoneal once a day, 10 minutes test, compared to solvent control (VPA), FIG. 2A
# Method: as §1, §2
# To verify an effect of piperazine-1-carboxamidine on treating autism spectrum disorder in valproic acid-induced autism rat models, changes in social interaction according to whether piperazine-1-carboxamidine was administered or not were examined (Crawley, Jacqueline N. Mental retardation and developmental disabilities research reviews 10.4 (2004): 248-258). […]
# [3] = test system: valproic acid-induced autism rat models; assay: Repetitive behavior test (grooming time); details: 12.5 mg/kg or more, intraperitoneal once a day; grooming time over 10 minutes; compared to autism-induced solvent control; FIG. 3
# Method: as §1
# The autism rat models prepared according to Example <1-1> were intraperitoneally administered piperazine-1-carboxamidine 24 days after birth once a day at a predetermined time. […]
# To confirm an autism therapeutic effect of piperazine-1-carboxamidine in valproic acid-induced autism rat models based on these findings, a grooming level enhancement effect was evaluated in the autism rat models.
# In particular, the autism rat models of Example <1-2>, which were administered piperazine-1-carboxamidine and aged between 33 days and 38 days, were placed in a cage (42 cm×29 cm×19 cm) without straw litter and adapted thereto for 10 minutes. Thereafter, the grooming time of the autism rat models was measured for 10 minutes to confirm the degree of repetitive behavior. […]
# [4] = test system: valproic acid-induced autism rat models; assay: Electroshock-induced seizure threshold (CC50); details: 25 mg/kg, intraperitoneal once a day; Litchfield-Wilcoxon method; versus valproic acid-exposed solvent control; FIG. 5
# Method: as §1, §2
# To confirm an effect of piperazine-1-carboxamidine on treating autism spectrum disorder in autism rat models, electroshock-induced seizure susceptibility was evaluated in autism rat models (Park, Hyung Geun, et al. European journal of pharmacology 574.2, 2007: 112-119; Browning, R. A., et al. Epilepsy research 6.1, 1990: 1-11). […]
# [5] = test system: valproic acid-induced autism rat models; assay: Open field test (hyperactivity and impulsive behavior); details: 25 or 50 mg/kg, intraperitoneal once a day, open field 10 minutes
# Method: as §1, §2
# To confirm an effect of piperazine-1-carboxamidine on treating autism spectrum disorder in autism rat models, general locomotor activity of the autism rat models was evaluated by an open field test for assaying enhancement and deterioration of motor functions, sedation, excitement, anxiety, depression, the degree of avoidance, and toxicity. […]
# [6] = 10 minutes test, versus autism-induced solvent control
structure (smiles),measurement,setting,value
N=C(N)N1CCNCC1 [piperazine-1-carboxamidine],"level of interest in the familiar side, residence time",[1]; [6],decreased
same,"level of interest in the novel side, residence time",[1]; [6],increased
same,social preference patterns,[1]; relative to normal controls,restored to levels similar to those of the normal controls
same,"degree of interest in new rat (strangers), residence time",[2]; 30 minutes before test,significantly increased
same,"degree of interest in the new empty side, residence time",[2],decreased
same,"degree of grooming (grooming time, repetitive behavior)",[3],decreased
same,"CC50 (convulsive current 50, electroshock-induced seizure threshold)",[4],significantly increased
same,emotional disturbance-related movement in the central region (ratio of moving distance in central region to total),[5]; FIG. 4B,reduced to levels of the normal controls
same,degree of hyperactivity (total moving distance),"[5]; versus autism-induced solvent control, FIG. 4A",significantly decreased
